From patent publication US20050054103A1, “Expansion of renewable stem cell populations using modulators of PI 3-kinase” (priority 2003, published 2005)

How the values were obtained:
[1] = tested on: CD34+ cell cultures; assay: Colony forming unit (CFU, LTC-CFUc) ability of RAR antagonist treated CD34+ cultures; format: cell-based, human; settings: for No. of CFU*103: RAR antagonist 10^−5 M for one week only
Method: Cells were cloned in semi-solid, methylcellulose-containing medium supplemented with 2 IU/ml erythropoietin (Eprex, Cilag AG Int., Switzerland), stem cell factor and IL-3, both at 20 ng/ml, and G-CSF and GM-CSF, both at 10 ng/ml (all from Perpo Tech). Cultures were incubated for 14 days at 37° C., 5% CO2 in a humidified atmosphere.
Briefly, the ability of the cultures to maintain self-renewal was measured by determination of the content of colony forming unit cells in the long and extended long-term cultures (LTC-CFUc), as described in the references hereinabove.
Long-term CD34^+ cell cultures were supplemented with a combination of 4 cytokines, Flt3, TPO, IL-6 and IL-3, with and without varying predetermined concentrations of the RAR antagonist AGN 194310. RAR antagonist treatment of the cultures was for a limited period of three weeks or was continuous during the entire culture period. The ability to form CFUs was determined for long-term (6 weeks) cultures treated with 2 doses of the RAR antagonist for a short pulse or continuously and was compared to control samples treated with cytokines alone.

[2] = tested on: CD34+ cells; assay: Ex vivo expansion of CD34+ cell enriched cultures with RXR, RAR and RAR+RXR antagonists (CFU, CD34+ counts, FACS); format: cell-based, human; settings: 10^−7 M, with TPO, FLT3, IL-6 and IL-3; 3 and 5 weeks
Method: Cultures were prepared and maintained as described above.
, the percentage of cells bearing the CD34^+ marker (considered to be mostly committed progenitor cells), as well as the percentage of cells bearing the markers CD34^+/CD38^− and CD34^+Lin^− […]

[3] = tested on: CD34 cells; assay: Transition metal chelators in CD34+ cell liquid cultures (cell number, CD34 cells, clonability); format: cell-based, human; settings: for Cells/ml (×10^4): FL, SCF, IL-6 50 ng/ml; for CFU expansion (fold): CFU day 7 / CFU day 0
Method: The interphase layer of mononuclear cells were collected, washed three times with Ca/Mg free phosphate buffered saline containing 1% bovine serum albumin (BSA). The cells were incubated for 30 min. at 4° C. with murine monoclonal anti CD34 antibody (0.5 μg/10^6 mononuclear cells) and thereafter isolated using the miniMACS apparatus (Miltenyi-Biotec, Bergisch, Gladbach, Germany) according to the manufacturer's protocol.
Culture procedures: For the expansion of progenitor cells, CD34^+ enriched fractions or unseparated mononuclear cells were seeded at about 1-3×10^4 cells/ml in either alpha minimal essential medium containing 10% preselected fetal calf serum (FCS) (both from GIBCO, Grand Island, N.Y.), or serum-free medium (Progenitor-34 medium, Life Technologies, Grand Island, N.Y.). The media were supplemented with a mixture of growth factors and transition metal chelators. The cultures were incubated at 37° C. in an atmosphere of 5% CO2 in air with extra humidity. Half of the medium was changed weekly with fresh medium containing all the supplements.
Cloning potential evaluations: The cloning potential of cells developed in the liquid culture was assayed, at different intervals, in semi-solid medium. The cells were washed and seeded in 35 mm dishes in methylcellulose containing alpha medium supplemented with recombinant growth factors (SCF, G-CSF, GM-CSF and EPO). Following 2 weeks incubation, the cultures were scored with an inverted microscope. Colonies were classified as blast, mixed, erythroid, myeloid, and megakaryocytic, according to their cellular composition.
Morphological assessment: In order to characterize the resulting culture populations, aliquots of cells were deposited on a glass slide (cytocentrifuge, Shandon, Runcorn, UK), fixed and stained in May-Grunwald Giemsa. Other aliquots were stained by benzidine for intracellular hemoglobin.
Immunofluorescence staining: At different intervals, cells from the liquid cultures were assayed for CD34 antigen. Aliquots were harvested, washed and incubated on ice with FITC-labeled anti CD45 monoclonal antibody and either PE-labeled anti CD34 (HPCA-2) monoclonal antibody or PE-labeled control mouse Ig. After incubation, red cells were lysed with lysing solution, while the remaining cells were washed and analyzed by flow cytometer.
Flow cytometry: Cells were analyzed and sorted using FACStar^plus flow cytometer (Becton-Dickinson, Immunofluorometry systems, Mountain View, Calif.). Cells were passed at a rate of 1,000 cells/second through a […] nozzle, using saline as the sheath fluid. […] The PMTs was set at the appropriate voltage. Logarithmic amplification was applied for measurements of fluorescence and linear amplification—for forward light scatter. At least 10^4 cells were analyzed.
Cord blood-derived CD34 cells were plated in liquid culture in the presence of: FL—50 ng/ml, SCF—50 ng/ml, IL-6—50 ng/ml, with or without IL-3—20 ng/ml, with or without TEPA—10 μM. On day 7, the percentage of CD34 cells and the total cell number were determined. Aliquots equivalent to 1×10^3 initiating cells were assayed on days 0 and 7 for colony forming cells (CFU) by cloning in semi-solid medium. CFU expansion represents the ratio of CFU present on day 7 to CFU present on day 0.
CD34^+ cells derived from human neonatal cord blood were purified by immunomagnetic method and then cultured in liquid medium supplemented with cytokines either with or without transition metal chelators. At weekly intervals, the cultures were demi-depopulated by removing half of the culture content (supernatant and cells) and replacing it with fresh medium, cytokines and the chelators. At the indicated weeks the cellular content of the cultures were quantified for total cells (by a manual microscopic/hemocytometric method), for CD34^+ cells (by immuno-flow cytometry) and for clonogenic cells (by cloning the cells in cytokine-supplemented semi-solid medium).

[4] = tested on: lethally irradiated Balb/c X C57B1/6 F1 mice; assay: Hematopoietic reconstitution of lethally irradiated mice, fresh vs. ex-vivo expanded cells; format: in vivo
Method: Hematopoietic reconstitution of lethally irradiated mice—fresh vs. ex-vivo expanded cells: Three month old female Balb/c X C57B1/6 F1 mice were lethally irradiated (1000 rad) and transplanted one day later with 1×10^5 fresh bone marrow cells or the yield of 1×10^5 bone marrow cells expanded ex-vivo either with or without TEPA for 3 to 5 weeks, as detailed in Table 12. Peripheral blood WBC counts were performed on weekly basis.

[5] = TEPA 10 μM, without IL-3, day 7
[6] = Exp. I, 3 weeks ex-vivo with TEPA + cytokines, day 13
[7] = Exp. I, 3 weeks ex-vivo with TEPA + cytokines, day 19
[8] = Exp. II, 3 weeks ex-vivo with TEPA + cytokines, day 11
[9] = Exp. II, 3 weeks ex-vivo with TEPA + cytokines, day 29
[10] = Exp. III, 5 weeks ex-vivo with TEPA + cytokines, day 6
[11] = Exp. III, 5 weeks ex-vivo with TEPA + cytokines, day 11

Compound: CCc1ccc(C2=CC(C)(C)Sc3ccc(C#Cc4ccc(C(=O)O)cc4)cc32)cc1 [AGN 194310]
- No. of CFU*103 ([1]; week 13): 66355 *103
- No. of CFU*103 ([1]; week 20): 0 *103
- increase of CFU content ([1]; extended long-term cultures (week 6 to 10), pulse or continuous treatment): 15×10^4
- increase in CFU content as compared to control ([1]; long-term (6 weeks) cultures, pulsed first 3 weeks or continuous antagonist): 5 fold
- activity on ex vivo expansion of stem/progenitor cells (CFU, CD34+, CD34+/38−, CD34+/Lin−) [2]: moderate activity

Compound: NCCNCCNCCNCCN [TEPA, tetraethylenepentamine]
- effect on differentiation of CD34+ cells [3]: inhibit differentiation
- Cells/ml (×10^4) ([3]; TEPA 10 μM, with IL-3 20 ng/ml, day 7): 11 ×10^4
- Cells/ml (×10^4) [3, 5]: 2 ×10^4
- CD34 cells (%) ([3]; TEPA 10 μM, with IL-3, day 7): 20%
- Colonies (Per 1 × 10^3 initiating cells) ([3]; TEPA 10 μM, with IL-3, day 7): 850
- CFU expansion (fold) ([3]; TEPA 10 μM, with IL-3): 17 fold
- CD34 cells (%) [3, 5]: 11.5%
- Colonies (Per 1 × 10^3 initiating cells) [3, 5]: 140
- CFU expansion (fold) ([3]; TEPA 10 μM, without IL-3): 2.8 fold
- CFUc expansion ([3]; after 6 weeks): 120 fold
- CFUc content of cultures ([3]; after 6 weeks, started with 2.5×10^3 CFUc): 300×10^3 CFUc
- time long-term CD34 cultures could be maintained ([3]; early-acting cytokines, no stromal cells, TEPA 10 μM): > 6 weeks
- cell proliferation and CFUc expansion in long-term CD34 cultures ([3]; long term cultures with early cytokines): more effective than the short-chain polyamines
- concentration with optimal activity ([3]; polyamine chelating agents, long-term CD34 cultures (FIGS. 39a-b)): 40 µM
- concentration with optimal activity ([3]; transition metal chelating agents, long-term CD34 cultures (FIGS. 40a-b)): 10 µM
- Survival [4, 6]: 5/5
- WBC × 10^6/ml [4, 6]: 0.7 × 10^6/ml
- Survival [4, 7]: 5/5
- WBC × 10^6/ml [4, 7]: 1.5 × 10^6/ml
- Survival [4, 8]: 5/5
- WBC × 10^6/ml [4, 8]: 0.92 × 10^6/ml
- Survival [4, 9]: 5/5
- WBC × 10^6/ml [4, 9]: 10.8 × 10^6/ml
- Survival [4, 10]: 5/5
- WBC × 10^6/ml [4, 10]: 0.69 × 10^6/ml
- Survival [4, 11]: 5/5
- WBC × 10^6/ml [4, 11]: 1.27 × 10^6/ml
- Survival ([4]; Exp. III, 5 weeks ex-vivo with TEPA + cytokines, day 19): 4/5
- Survival ([4]; Exp. III, 5 weeks ex-vivo with TEPA + cytokines, day 27): 4/5
- WBC recovery vs fresh cells or cells expanded without TEPA ([4]; bone marrow cells expanded ex-vivo in the presence of TEPA): faster
